Reference: paper PMC12314576, “The Actin‐Binding Prolyl‐Isomerase Par17 Sustains Its Substrate Selectivity by Interdomain Allostery” (Proteins, 2025)
Starred links: 1 amine or outer side, 2 acyl side, 3 side chain; linkers in the order of their positions; H or OH if unused. Residues, ends and D or L forms follow the SMILES beside them. *: point of attachment. pNA = O=[N+]([O-])c1ccc(N*)cc1; Suc = O=C(CCC(=O)[*:2])[*:1]

Key:
[1] = molecular target: T1, Par17 (Homo sapiens, UniProt Q9Y237); experiment: Protease-coupled isomerase assay (PPIase assay) with Par17; assay type: biochemical; settings: PBS pH 6.8, 10°C, PPIase 2 μM; for k = kobserved - kthermic, Par17: α-chymotrypsin 35 μM, substrate 75 μM, absorbance 390 nm, mean ± SD
T1 construct: full‐length Par17 and the N‐terminus of Par17; GST-His6 (PreScission site) (N, cleaved yes); Gly-Pro remnant of the PreScission site (Gly stands at position 1 in place of Met1); made in house; host or cells: E. coli BL21 (DE3) T1r
Method: (§1) To determine the catalytic efficiency and substrate specificity of Par14 and Par17, we performed a protease‐coupled assay. In this assay, the trans form of a para‐nitroaniline (pNA) tagged model substrate is cleaved by chymotrypsin, and the resulting change in absorption at 390 nm due to free pNA is measured. When the model substrate is added to the protease‐containing buffer, all trans‐Xaa‐Pro isomers are immediately cleaved by chymotrypsin. Therefore, the extent of the first signal burst observed in the absorption spectrum correlates with the amount of trans isomers of the model substrate formed during the experimental dead time. The remaining cis‐Xaa substrates now start to isomerize by thermal (in the absence of PPIase) or catalytic reaction (in the presence of PPIase). The newly formed trans‐Xaa substrates are immediately cleaved, and isomerization can thus be monitored over time (Figure 2). Eighteen different substrate peptides with varying amino acids at the Xaa position (Suc‐Ala‐Xaa‐Pro‐Phe‐pNa) were measured to determine the isomerase activity and substrate selectivity of Par14 (Par17Δ1–25), Par17, and the catalytic domain (Par17Δ1–60) (Table S1). The catalytic efficiency is obtained from the observed isomerization curves by calculating the difference between the rate constant in the presence of enzyme and the rate constant obtained from thermal isomerization.
(§2) We determined the isomerase activity using the PPIase assay described by. The lyophilized peptides were dissolved in an adequate volume of 0.5 mM‐LiCl/TFE buffer to obtain a 15 mM stock solution. To achieve a stable cis/trans ratio the mixture was incubated overnight at 4°C. The next day a stock solution of 350 μM α‐chymotrypsin in PBS was incubated on ice for at least 20 min. For measurements without PPIase PBS buffer (pH 6.8) was mixed with α‐chymotrypsin to a final concentration of 35 μM in 1 mL. A baseline was recorded for 5 min (Cary 100Bio UV/Vis spectrophotometer, Varian/Agilent, Santa Clara, US, λ: 390 nm, bandwidth: 1.0 nm, average time between measurements: 0.5 s, temperature: 10°C). After 5 min the substrate peptide was added to a final concentration of 75 μM in 1 mL [59]. The solution was mixed by inverting the cuvette three times and the reaction was recorded for 15 min. Measurements in the presence of PPIase were performed in the same way, except that before the baseline measurement, the appropriate isomerase was added in a final concentration of 2 μM in 1 mL in addition to PBS and α‐chymotrypsin.
(§3) For the data analysis, a mean value of the baseline was subtracted (average of the first 200 data points). The measured values were normalized according to the respective maximum of the measurement. To determine the rate constant, the program graph pad was used, and non‐linear curve fitting was applied for each measurement (exponential, one‐phase association). (1) Y=Y0+Plateau−Y0∙1−e^−K∙x
(§4) where x is the time (min), Y is the absorbance, Y 0 is the absorbance when x = 0, Plateau is the Y value at infinite times, K is the rate constant (min^−1).
(§5) The K cat/K M value was calculated according to Equation (2): (2) kcat/KM=kobs−ktherm/PPIase where k cat/K M is the catalytic efficiency (M^−1 s^−1), k obs, rate constant of the observed reaction (s^−1), k therm is the rate constant of the thermic reaction (s^−1), and [PPIase] is the concentration of PPIase used in the assay (M).
(§6) The obtained data are fitted to Equation (2) using a pseudo first‐order assumption. This is the case, if k obs values behave linearly with rising PPIase concentrations.

[2] = molecular target: T1, Par17; experiment: NMR titration of substrate peptides to 15N-labeled full-length Par17; assay type: binding; settings: 300 μM Par17, KPi pH 6.7, 20°C
Method: The amide signals were assigned and combined chemical shift changes between the signals of free and substrate‐bound isomers were calculated.
For NMR measurements, purified and concentrated proteins in salt‐free buffers were mixed with 10% D2O and 1 μL DSS standard. Spectra were measured on an ultra shield 700‐NMR (Bruker, Billerica, US) with a triple resonance cryoprobe (700 MHz). For recording and processing of data, the software Topspin 3.5 was used. Analysis of spectra was carried out using Cara analysis software 2.3.1 (Rochus L.J. Keller) and/or CcpNmr Analysis 2.3.1 (Department of Molecular and Cell Biology, University of Leicester, UK).
Titration of substrate peptides to ^ 15 N‐labeled full‐length Par17 and the N‐terminus of Par17: The following substrate peptides were diluted in salt‐free 50 mM KPi buffer pH 6.7 to a concentration of 15 mM (Suc: Succinyl, pNA: para‐Nitroanilin):
They were added stepwise to 200 μL of the labeled parvulins (300 μM in 50 mM KPi buffer pH 6.7). Spectra were recorded with the pulse program Best‐TROSY at 20°C. Combined chemical shifts were calculated as described. Microscopic dissociation constant K D was fitted with the following equation (assuming a 1:1 binding model): (4) ∆δ=∆δmax·P+x+KD−P+x+KD^2−4·x·P/2·P
where ∆δmax is the amplitude, P is the protein concentration, X is the concentration of the peptide.
Differences in chemical shift changes could be measured up to 0.001 ppm (error in peak picking). Changes were interpreted as significant if Δ > 0.004 ppm and when appearing consecutively in a linear sequence element.
The microscopic K D describes the binding affinity of the ligand to a single side of an amino acid.

[3] = molecular target: T2, PPIase domain (Par17Δ1-60) (Homo sapiens, UniProt Q9Y237); experiment: Protease-coupled isomerase assay (PPIase assay) with the catalytic domain; assay type: biochemical; settings: PBS pH 6.8, 10°C, PPIase 2 μM; for k = kobserved - kthermic, PPIase domain (Par17Δ1-60): α-chymotrypsin 35 μM, substrate 75 μM, absorbance 390 nm, mean ± SD
T2 construct: GST-His6 (PreScission site) (N, cleaved yes); made in house; host or cells: E. coli BL21 (DE3) T1r
Method: as §1, §2, §3, §4, §5, §6

[4] = molecular target: T3, Par14 (Par17Δ1-25) (Homo sapiens, UniProt Q9Y237); experiment: Protease-coupled isomerase assay (PPIase assay) with Par14; assay type: biochemical; settings: PBS pH 6.8, 10°C, PPIase 2 μM; for k = kobserved - kthermic, Par14 (Par17Δ1-25): α-chymotrypsin 35 μM, substrate 75 μM, absorbance 390 nm, mean ± SD
T3 construct: Comparison of spectra of full‐length parvulin proteins and PPIase domain; GST-His6 (PreScission site) (N, cleaved yes); made in house; host or cells: E. coli BL21 (DE3) T1r
Method: as §1, §2, §3, §4, §5, §6

[5] = Table ST1, (kobs−ktherm)/[PPIase]

T3 sequence (Q9Y237 whole entry, stated change not applied, the tested form may be a part): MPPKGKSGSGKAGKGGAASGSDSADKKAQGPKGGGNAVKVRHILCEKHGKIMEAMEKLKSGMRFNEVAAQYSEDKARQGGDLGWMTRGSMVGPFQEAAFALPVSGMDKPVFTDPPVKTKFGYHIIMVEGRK
T1 sequence (Q9Y237 1-156 isoform Q9Y237-2): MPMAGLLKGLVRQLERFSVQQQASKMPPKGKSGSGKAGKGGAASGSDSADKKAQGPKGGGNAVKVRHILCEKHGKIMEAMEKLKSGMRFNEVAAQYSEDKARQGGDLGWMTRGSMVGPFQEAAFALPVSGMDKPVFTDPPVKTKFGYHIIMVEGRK
T2 sequence (Q9Y237 36-131, stated change not applied): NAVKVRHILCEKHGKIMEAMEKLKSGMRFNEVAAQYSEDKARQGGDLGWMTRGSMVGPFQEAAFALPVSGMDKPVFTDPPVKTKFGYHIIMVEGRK

C[C@H](NC(=O)CCC(=O)O)C(=O)NCC(=O)N1CCC[C@H]1C(=O)N[C@@H](Cc1ccccc1)C(=O)Nc1ccc([N+](=O)[O-])cc1 [Gly, Suc‐Ala‐Gly‐Pro‐Phe‐pNa] (Suc-AGPF-pNA)
k = kobserved - kthermic, Par17 [1]: <0.01 ± 0.029 min⁻¹ | Combined chemical shift perturbation of full length Par17, 113G ([2]; peptide 0,35 mM): 0,014 ppm | Combined chemical shift perturbation of full length Par17, 116V ([2]; peptide 0,35 mM): 0,038 ppm | Combined chemical shift perturbation of full length Par17, 119F ([2]; peptide 0,35 mM): 0,012 ppm | Combined chemical shift perturbation of full length Par17, 113G ([2]; peptide 3 mM): 0,116 ppm | Combined chemical shift perturbation of full length Par17, 115M ([2]; peptide 3 mM): 0,06 ppm | Combined chemical shift perturbation of full length Par17, 116V ([2]; peptide 3 mM): 0,302 ppm | Combined chemical shift perturbation of full length Par17, 119F ([2]; peptide 3 mM): 0,084 ppm | Combined chemical shift perturbation of full length Par17, 113G ([2]; peptide 5 mM): 0,157 ppm | Combined chemical shift perturbation of full length Par17, 115M ([2]; peptide 5 mM): 0,081 ppm | Combined chemical shift perturbation of full length Par17, 116V ([2]; peptide 5 mM): 0,412 ppm | Combined chemical shift perturbation of full length Par17, 119F ([2]; peptide 5 mM): 0,113 ppm | Combined chemical shift perturbation of full length Par17, 113G ([2]; peptide 1,5 mM): 0,066 ppm | Combined chemical shift perturbation of full length Par17, 115M ([2]; peptide 1,5 mM): 0,035 ppm | Combined chemical shift perturbation of full length Par17, 116V ([2]; peptide 1,5 mM): 0,173 ppm | Combined chemical shift perturbation of full length Par17, 119F ([2]; peptide 1,5 mM): 0,05 ppm | k = kobserved - kthermic, PPIase domain (Par17Δ1-60) [3]: 0.275 ± 0.214 min⁻¹ | k = kobserved - kthermic, Par14 (Par17Δ1-25) [4]: 0.390 ± 0.457 min⁻¹

C[C@H](NC(=O)CCC(=O)O)C(=O)N[C@@H](CCC(=O)O)C(=O)N1CCC[C@H]1C(=O)N[C@@H](Cc1ccccc1)C(=O)Nc1ccc([N+](=O)[O-])cc1 [Glu, Suc–Ala–Glu–Pro–Phe–pNa] (Suc-AEPF-pNA)
k = kobserved - kthermic, Par17 [1]: <0.01 ± 0.029 min⁻¹ | Combined chemical shift perturbation of full length Par17, 113G ([2]; peptide 0,2 mM): 0,02117 ppm | Combined chemical shift perturbation of full length Par17, 115M ([2]; peptide 0,2 mM): 0,01409 ppm | Combined chemical shift perturbation of full length Par17, 116V ([2]; peptide 0,2 mM): 0,03056 ppm | Combined chemical shift perturbation of full length Par17, 119F ([2]; peptide 0,2 mM): 0,02147 ppm | Combined chemical shift perturbation of full length Par17, 113G ([2]; peptide 1 mM): 0,08535 ppm | Combined chemical shift perturbation of full length Par17, 115M ([2]; peptide 1 mM): 0,06465 ppm | Combined chemical shift perturbation of full length Par17, 116V ([2]; peptide 1 mM): 0,12599 ppm | Combined chemical shift perturbation of full length Par17, 119F ([2]; peptide 1 mM): 0,0896 ppm | Combined chemical shift perturbation of full length Par17, 113G ([2]; peptide 2 mM): 0,14414 ppm | Combined chemical shift perturbation of full length Par17, 115M ([2]; peptide 2 mM): 0,10754 ppm | Combined chemical shift perturbation of full length Par17, 116V ([2]; peptide 2 mM): 0,21191 ppm | Combined chemical shift perturbation of full length Par17, 119F ([2]; peptide 2 mM): 0,14351 ppm | Combined chemical shift perturbation of full length Par17, 113G ([2]; peptide 3 mM): 0,17998 ppm | Combined chemical shift perturbation of full length Par17, 115M ([2]; peptide 3 mM): 0,13595 ppm | Combined chemical shift perturbation of full length Par17, 116V ([2]; peptide 3 mM): 0,27245 ppm | Combined chemical shift perturbation of full length Par17, 119F ([2]; peptide 3 mM): 0,18213 ppm | Combined chemical shift perturbation of full length Par17, 113G ([2]; peptide 4 mM): 0,21636 ppm | Combined chemical shift perturbation of full length Par17, 115M ([2]; peptide 4 mM): 0,16135 ppm | Combined chemical shift perturbation of full length Par17, 116V ([2]; peptide 4 mM): 0,32999 ppm | Combined chemical shift perturbation of full length Par17, 119F ([2]; peptide 4 mM): 0,22445 ppm | k = kobserved - kthermic, PPIase domain (Par17Δ1-60) [3]: 0.114 ± 0.074 min⁻¹ | k = kobserved - kthermic, Par14 (Par17Δ1-25) [4]: 0.267 ± 0.011 min⁻¹

Suc-Ala-Ser-Pro-Phe-pNa [model substrate peptide, Xaa = Ser]
kcat/KM, Par17 [1, 5]: <0.1 M^-1·s^-1 · 10^3 | k = kobserved - kthermic, Par17 [1]: <0.01 ± 0.098 min⁻¹ | kcat/KM, PPIase domain (Par17Δ1-60) [3, 5]: 2.7 M^-1·s^-1 · 10^3 | k = kobserved - kthermic, PPIase domain (Par17Δ1-60) [3]: 0.327 ± 0.273 min⁻¹ | kcat/KM, Par14 (Par17Δ1-25) [4, 5]: 2.7 M^-1·s^-1 · 10^3 | k = kobserved - kthermic, Par14 (Par17Δ1-25) [4]: 0.332 ± 0.054 min⁻¹
